Results: patent publication US9370555B2, “Surfactant protein D for the treatment of disorders associated with lung injury” (priority 1998, dated 2016)
Entries after “also recorded” stand apart in the source; their conditions may differ.

What was measured:
MMP-2 and 9 = assay: Gelatin zymography of conditioned media from alveolar macrophages of SP-D(−/−) mice; format: cell-based, mouse; conditions: for gelatinolytic activity of MMP-2 and 9 in conditioned media: AMs from SP-D(−/−) mice, 20 mM NAC, 200 μM PDTC, 1 μM DPI, 1 mM apocynin, 10 μM SN-50, 24 h
Description: Isolation of alveolar macrophages (AMs) from bronchoalveolar lavage (BAL) was performed by instilling ten, 1 ml aliquots of phosphate-buffered saline (PBS). BAL fluid from several animals was pooled to provide sufficient numbers of macrophages for each analysis. The lavage was centrifuged at 1200 rpm at 7 min and pelleted cells were resuspended in serum-free RPMI medium containing 1% of Nutriodoma (Boehringer Mannheim, Indianapolis, Ind.), and counted with a hemocytometer. More than 90% of BAL cells were AM in both WT and SP-D (−/−) mice. For some experiments, alveolar macrophages (AMs) were isolated by differential attachment to tissue culture flasks at 37° C. Non-adherent cells were then removed, and fresh, serum-free medium was added. The adherent AMs were maintained in a humidified atmosphere containing 5% CO2 and 95% air until the end of the experiments. To determine whether increased oxidant production mediated the expression of MMPs by AMs from SP-D (−/−) mice, the cells were treated with N-acetylcysteine (NAC) and pyrrolidine dithiocarbamate (PDTC), both antioxidant reagents as follows: AMs from SP-D (−/−) mice were pooled and placed in culture at a concentration of 5×10^5 cells per well in serum-free RPMI medium. The AMs were treated with 20 mM N-acetylcysteine (NAC), 200 μM pyrolidine dithiocarbamate (PDTC), 1 μM diphenylene iodonium chloride (DPI) (Sigma, St. Louis, Mo.), or 1 mM apocynin (Aldrich, Milwaukee, Wis.). Cells were also incubated with a 10 μM SN-50 (Calbiochem, LaJolla, Calif.), an inhibitor of NF-κB nuclear import. After 6 h incubation, supernatants were removed and the cells were washed and incubated with fresh media including the reagents for 24 h. […] RAW 264.7 murine macrophage cell line was obtained from the American Type Culture Collection (Rockville, Md.) and maintained in DMEM containing 10% FBS, 10 mM HEPES, 50 U/ml penicillin and 50 μg/mL streptomycin. 2×10^5 cells in 24-well plates were incubated with or without 10 μM menadione (Sigma, St. Louis, Mo.) for 24 hours. Gelatinolytic activity in the culture media of untreated and treated cells was analyzed by SDS-PAGE zymography (FIGS. 29A-29D). Gelatin Zymography was performed as follows: MMP activities were measured in macrophage-conditioned media. Proteinases in the conditioned media were concentrated by incubation with gelatin-agarose beads (Amersham Pharmacia, Arlington Heights, Ill.) for 2 h at 4° C. The beads were pelleted and washed, and proteinases eluted by incubation in sample buffer for 45 min at 37° C. The samples then were electrophoresed into 10% Zymogram gelatin gels (NOVEX, San Diego, Calif.). […] Gels were stained with 0.5% (wt/vol) Coomassie blue in 50% methanol and 10% acetic acid for 30 min, then destained. MMPs were detected as clear bands against a blue background.

MMP-2 and 9 mRNA = assay: RT-PCR of MMP-2 and 9 mRNA in cultured AMs from SP-D(−/−) mice; format: cell-based, mouse; conditions: 1 mM apocynin
NF-κB = assay: EMSA of nuclear extracts from AMs of SP-D(−/−) mice, NF-κB oligonucleotide; format: cell-based, mouse; conditions: AMs isolated from SP-D(−/−) mice
Description: (§1) To assess whether apocyanin affected binding of nuclear extracts, the following protocol was used: Nuclear extracts were obtained using a modified method previously described (Sever Chroneos, et al. Am. J. Physiol. 277:L79). Lavaged cells were lysed with Buffer A (10 mM Hepes, 10 mM KCl, 0.1 mM EDTA, 1.5 mM MgCl2, 0.2% Nonidet P-40 (NP-40), 1 mM DTT, 0.5 mM PMSF), followed by vortexing to shear the cytoplasmic membranes. Nuclei were pelleted by centrifugation at 3000 rpm for 3 min at 4° C. in a microcentrifuge. Nuclear proteins were extracted with high-salt buffer C (20 mM Hepes, 25% glycerol, 1.5 mM MgCl2, 0.1 mM EDTA, 1.5 mM MgCl2, 420 mM NaCl, 1 mM DTT, 0.5 mM PMSF) and stored at −80° C. Total nuclear protein concentrations were determined by bicinchoninic acid (BCA) method.

AP-1 = assay: EMSA of nuclear extracts from AMs of SP-D(−/−) mice, AP-1 oligonucleotide; format: cell-based, mouse; conditions: AMs isolated from SP-D(−/−) mice
Description: as §1

[1] = system: RAW 264.7 murine macrophage cell line; assay: MMP-9 production by RAW 264.7 macrophages (zymography); format: cell-based, mouse; conditions: 10 μM, 24 hours
Description: RAW 264.7 murine macrophage cell line was obtained from the American Type Culture Collection (Rockville, Md.) and maintained in DMEM containing 10% FBS, 10 mM HEPES, 50 U/ml penicillin and 50 μg/mL streptomycin. 2×10^5 cells in 24-well plates were incubated with or without 10 μM menadione (Sigma, St. Louis, Mo.) for 24 hours. To assess whether ROS directly stimulated MMP production, RAW 264.7 macrophages were incubated with 10 μM of menadione, a ROS generator, for 24 hours.

SP-D(−/−) mice = assay: Treatment of SP-D(−/−) mice with purified mouse SP-D: saturated PC pools; format: in vivo; conditions: 2.9 μg intratracheally at 24 hour intervals, 3 to 7 doses
[2] = system: influenza A virus A/Phillipines/82 (H3N2) (Phil/82); format: in vivo; conditions: SP-D −/− mice

Molecule: COc1cc(C(C)=O)ccc1O [apocynin]
- gelatinolytic activity of MMP-2 and 9 in conditioned media (MMP-2 and 9): markedly suppressed MMP enzymatic activity; also recorded: markedly decreased MMP activity
- MMP-2 and 9 mRNA (MMP-2 and 9 mRNA): reduced MMP-2 and 9 mRNA
- binding of nuclear extracts to NF-κB oligonucleotide (EMSA) (NF-κB): reduced DNA binding activity of NF-κB
- binding of nuclear extracts to NF-κB oligonucleotide (EMSA) (NF-κB; listed as Apocynin): reduced binding of nuclear extracts
- DNA binding activity to an AP-1 oligonucleotide (EMSA) (AP-1): decreased DNA binding activity

Molecule: S=C(S)N1CCCC1 [PDTC, pyrrolidine dithiocarbamate]
- gelatinolytic activity of MMP-2 and 9 in conditioned media (MMP-2 and 9): reduced gelatinolytic activity; also recorded: inhibited gelatinolytic activities of MMP-2 and 9

Molecule: c1ccc2c(c1)[I+]c1ccccc1-2 [DPI, diphenylene iodonium chloride]
- gelatinolytic activity of MMP-2 and 9 in conditioned media (MMP-2 and 9): markedly suppressed MMP enzymatic activity; also recorded: markedly decreased MMP activity

Molecule: CC(=O)N[C@@H](CS)C(=O)O [NAC, N-acetylcysteine]
- gelatinolytic activity of MMP-2 and 9 in conditioned media (MMP-2 and 9): reduced gelatinolytic activity; also recorded: inhibited gelatinolytic activities of MMP-2 and 9

Molecule: CC1=CC(=O)c2ccccc2C1=O [menadione]
- MMP-9 production [1]: increased

B1: purified mouse SP-D: Surfactant protein D purified from BAL fluid of GMCSF and SP-A double null mutant mice on maltosyl-agarose (protein, UniProt P50404 20-374, looked up)
Pulmonary …: AEMKSLSQRSVPNTCTLVMCSPTENGLPGRDGRDGREGPRGEKGDPGLPGPMGLSGLQGPTGPVGPKGENGSAGEPGPKGERGLSGPPGLPGIPGPAGKEGPSGKQGNIGPQGKPGPKGEAGPKGEVGAPGMQGSTGAKGSTGPKGERGAPGVQGAPGNAGAAGPAGPAGPQGAPGSRGPPGLKGDRGVPGDRGIKGESGLPDSAALRQQMEALKGKLQRLEVAFSHYQKAALFPDGRSVGDKIFRTADSEKPFEDAQEMCKQAGGQLASPRSATENAAIQQLITAHNKAAFLSMTDVGTEGKFTYPTGEPLVYSNWAPGEPNNNGGAENCVEIFTNGQWNDKACGEQRLVICEF
- Saturated PC levels in alveolar lavage and total lung lavage (lipid accumulation) (SP-D(−/−) mice): partial correction of lipid accumulation; also recorded: decreased both alveolar and saturated PC pools
- MMP production by AMs (MMP-2 and 9; mouse SP-D 5 μg/ml in vitro): did not reduce MMP production

B2: recombinant SP-D: Recombinant human SP-D dodecamers secreted by CHO-K1 cells transfected with full-length human cDNA (protein)
chain: AEMKSLSQRSVPNTCTLVMCSPTENGLPGRDGRDGREGPRGEKGDPGLPGPMGLSGLQGPTGPVGPKGENGSAGEPGPKGERGLSGPPGLPGIPGPAGKEGPSGKQGNIGPQGKPGPKGEAGPKGEVGAPGMQGSTGAKGSTGPKGERGAPGVQGAPGNAGAAGPAGPAGPQGAPGSRGPPGLKGDRGVPGDRGIKGESGLPDSAALRQQMEALKGKLQRLEVAFSHYQKAALFPDGRSVGDKIFRTADSEKPFEDAQEMCKQAGGQLASPRSATENAAIQQLITAHNKAAFLSMTDVGTEGKFTYPTGEPLVYSNWAPGEPNNNGGAENCVEIFTNGQWNDKACGEQRLVICEF
- IAV (Phil/82) titer in lung ([2]; 5 μg intratracheal co-administration, 3 days after infection, untreated 1.6×10^5±4.0×10^4, mean±SEM): 7.5×10^4±1.4×10^4 ff/gram lung
- clearance of IAV from the lung ([2]; co-administration of recombinant SP-D): normalized viral clearance; also recorded: enhanced clearance
